Assay results from patent US9878984B2, “Anti-cancer compounds” (NORTHWESTERN UNIVERSITY, priority 2008, dated 2018).

What was measured:
[1] = biological target: T1, wild type recombinant human NAT2 (NAT2*4) (Homo sapiens, UniProt P11245); experiment: NAT2 acetylation assay (mass spectrometry); type: in vitro ADME; details: 200 μM compound, 100 μg NAT2*4, 400 μM AcetylCoA, 10 min
T1 construct: made in house; host or cells: E. coli
T1 sequence (P11245 1-290): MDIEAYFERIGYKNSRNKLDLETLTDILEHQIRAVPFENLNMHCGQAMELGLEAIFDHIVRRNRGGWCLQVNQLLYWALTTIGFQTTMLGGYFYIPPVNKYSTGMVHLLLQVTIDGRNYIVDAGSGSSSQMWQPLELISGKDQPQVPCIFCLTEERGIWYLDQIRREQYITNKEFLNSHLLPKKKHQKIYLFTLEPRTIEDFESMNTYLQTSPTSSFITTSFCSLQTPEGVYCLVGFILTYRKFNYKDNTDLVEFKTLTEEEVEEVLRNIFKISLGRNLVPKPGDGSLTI
Experimental: NAT2 Assay: This assay was performed using a wild type recombinant human NAT2 (NAT2*4) that was purified from E. coli as previously described. The volume of each reaction was 500 μL with 200 μM amonafide, A1, or A2, 100 μg NAT2*4, and 400 μM AcetylCoA (Sigma-Poole, UK). Reactions were run for 0 or 10 min and stopped by addition of 500 μL of 20% (w/v) trichloroacetic acid (TCA-Sigma-Poole, UK) to give a final TCA concentration of […], which precipitates the enzyme. Two control assays, lacking either enzyme or compound, were performed for each compound. The reaction mixtures were prepared for analysis by isolation of the compounds from the reaction matrix by solid-phase extraction. In brief, 100 μL of the reaction mixture was added to 1 mL of 2% acetic acid. The sorbent of an Oasis HLB 30 mg Extraction Cartridge (Waters Chromatography—Milford, Mass.) was conditioned with 1 mL of methanol and 1 mL of water, the prepared sample was applied to the conditioned sorbent, and the sorbent was washed with 1 mL of 5% methanol. Samples were eluted with 200 μL methanol followed by 800 μL of 0.1% formic acid in methanol. The eluant was analyzed by an API 3000 LC-MS/MS system (Applied Biosystems—Foster City, Calif.). Samples were infused at 5 μL/min directly into the TurboIonSpray Source (Applied Biosystems—Foster City, Calif.), which was operated in the positive ionization mode. […]

Chk2 = experiment: DNA damage response assay (pThr68-Chk2 / total Chk2 western blot); type: cell-based, human; details: HeLa cells, [GI99%], 20 hr, normalized to mitoxantrone
Experimental: DNA Damage Response Assay: 250,000 HeLa cells were plated in 35 mm culture dishes and allowed to attach for 8 hr and were then treated with the [GI99%] of each compound for 20 hr (total media volume was […] with 1% DMSO). After treatment cells were lysed in 150 μL detergent buffer containing 1:100 v/v protease inhibitor cocktail (Sigma—St. Louis, Mo.). Lysates were run on denaturing 12% acrylamide gels and transferred to nitrocellulose membranes. The membranes were blocked in blotto, incubated in anti-pThr68-Chk2 antibody (Cell Signaling—Danvers, Mass.) at 1:500 v/v dilution in blotto overnight 4° C., washed, incubated in HRP conjugated anti-rabbit secondary antibody (Jackson) at 1:5,000 v/v dilution in blotto for 1 hr, and then developed. The membranes were then stripped with a reducing buffer, blocked in blotto, incubated in anti-Chk2 antibody (Biolegend—San Diego, Calif.) at 1:500 v/v dilution in blotto overnight at 4° C., washed, incubated in HRP conjugated anti-mouse secondary antibody (Jackson) at 1:5,000 v/v dilution in blotto for 1 hr, and then developed. Membranes were developed with PicoWest Developing Solution (Pierce) and exposed to film. The intensities of bands were quantified as described in the previous section. The data are expressed as the average ratio of pThr68-Chk2 to total Chk2 as normalized to the mitoxantrone control in each of three independent experiments.
Topoisomerase inhibition by most mechanisms should cause activation of DNA damage response pathways because of the production of single and double strand DNA breaks, as is the case with amonafide. […] Therefore, measuring the DNA damage response at a fixed cytotoxic dose ([GI99%]) will determine the extent that DNA damage contributes to the cytotoxicity of these compounds. […] Activation of Chk2 was determined by measuring the ratio of pThr68-Chk2 to total Chk2 in HeLa cells treated with the [GI99%].

`CN(C)CCN1C(=O)c2cccc3cc(N)cc(c23)C1=O` [amonafide, reference compound] was tested, and the “N-acetylation by NAT2 (ratio of acetylated to parent compound)” value [1] was “extensively acetylated”, the “N-acetylation by NAT2 (ratio of acetylated to parent compound)” value ([1]; listed as Amonafide) was “underwent extensive acetylation” and the “DNA damage response (ratio of pThr68-Chk2 to total Chk2)” value (Chk2) was “evoked the strongest DNA damage response”.
